According to the kinase profiling compilation of Christmann-Franck et al. (2016):

Assays:
Test in all cases: KINOMEscan competition binding
Conditions in all cases: compound 10.0 µM
AAK1 (human) = AAK1 (human) (UniProt Q2M2I8)
ACVR1 (human) = ACVR1 (human) (UniProt Q04771)
ADCK4 (human) = ADCK4 (human) (UniProt Q96D53)
AURKA (human) = AURKA (human) (UniProt O14965)
AURKB (human) = AURKB (human) (UniProt Q96GD4)
AURKC (human) = AURKC (human) (UniProt Q9UQB9)
BMP2K (human) = BMP2K (human) (UniProt Q9NSY1)
CDK7 (human) = CDK7 (human) (UniProt P50613)
CSNK1D (human) = CSNK1D (human) (UniProt P48730)
CSNK1E (human) = CSNK1E (human) (UniProt P49674)
CSNK1G3 (human) = CSNK1G3 (human) (UniProt Q9Y6M4)
DCLK1 (human) = DCLK1 (human) (UniProt O15075)
Chain of DCLK1 (human) (O15075 whole entry, looked up): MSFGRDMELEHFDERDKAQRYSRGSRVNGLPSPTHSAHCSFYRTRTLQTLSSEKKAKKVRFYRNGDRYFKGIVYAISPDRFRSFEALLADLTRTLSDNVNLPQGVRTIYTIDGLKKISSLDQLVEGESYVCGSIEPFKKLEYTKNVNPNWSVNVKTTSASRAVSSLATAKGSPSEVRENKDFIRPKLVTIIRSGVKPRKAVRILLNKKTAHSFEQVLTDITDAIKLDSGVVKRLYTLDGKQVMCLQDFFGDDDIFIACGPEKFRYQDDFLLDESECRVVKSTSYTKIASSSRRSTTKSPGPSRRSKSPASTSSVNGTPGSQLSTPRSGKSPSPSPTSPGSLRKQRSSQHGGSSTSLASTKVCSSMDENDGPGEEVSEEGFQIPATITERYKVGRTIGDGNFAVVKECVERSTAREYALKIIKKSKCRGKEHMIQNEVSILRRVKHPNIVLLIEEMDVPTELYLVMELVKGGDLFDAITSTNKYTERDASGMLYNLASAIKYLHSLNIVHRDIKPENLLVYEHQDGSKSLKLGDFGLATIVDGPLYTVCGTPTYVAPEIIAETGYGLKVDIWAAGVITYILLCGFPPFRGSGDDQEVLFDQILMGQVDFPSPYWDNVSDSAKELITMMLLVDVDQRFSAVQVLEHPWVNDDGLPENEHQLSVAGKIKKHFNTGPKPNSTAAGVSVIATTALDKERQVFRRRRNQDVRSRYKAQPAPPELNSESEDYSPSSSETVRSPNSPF

FYN (human) = FYN (human) (UniProt P06241)
GAK (human) = GAK (human) (UniProt O14976)
Chain of GAK (human) (O14976 whole entry, looked up): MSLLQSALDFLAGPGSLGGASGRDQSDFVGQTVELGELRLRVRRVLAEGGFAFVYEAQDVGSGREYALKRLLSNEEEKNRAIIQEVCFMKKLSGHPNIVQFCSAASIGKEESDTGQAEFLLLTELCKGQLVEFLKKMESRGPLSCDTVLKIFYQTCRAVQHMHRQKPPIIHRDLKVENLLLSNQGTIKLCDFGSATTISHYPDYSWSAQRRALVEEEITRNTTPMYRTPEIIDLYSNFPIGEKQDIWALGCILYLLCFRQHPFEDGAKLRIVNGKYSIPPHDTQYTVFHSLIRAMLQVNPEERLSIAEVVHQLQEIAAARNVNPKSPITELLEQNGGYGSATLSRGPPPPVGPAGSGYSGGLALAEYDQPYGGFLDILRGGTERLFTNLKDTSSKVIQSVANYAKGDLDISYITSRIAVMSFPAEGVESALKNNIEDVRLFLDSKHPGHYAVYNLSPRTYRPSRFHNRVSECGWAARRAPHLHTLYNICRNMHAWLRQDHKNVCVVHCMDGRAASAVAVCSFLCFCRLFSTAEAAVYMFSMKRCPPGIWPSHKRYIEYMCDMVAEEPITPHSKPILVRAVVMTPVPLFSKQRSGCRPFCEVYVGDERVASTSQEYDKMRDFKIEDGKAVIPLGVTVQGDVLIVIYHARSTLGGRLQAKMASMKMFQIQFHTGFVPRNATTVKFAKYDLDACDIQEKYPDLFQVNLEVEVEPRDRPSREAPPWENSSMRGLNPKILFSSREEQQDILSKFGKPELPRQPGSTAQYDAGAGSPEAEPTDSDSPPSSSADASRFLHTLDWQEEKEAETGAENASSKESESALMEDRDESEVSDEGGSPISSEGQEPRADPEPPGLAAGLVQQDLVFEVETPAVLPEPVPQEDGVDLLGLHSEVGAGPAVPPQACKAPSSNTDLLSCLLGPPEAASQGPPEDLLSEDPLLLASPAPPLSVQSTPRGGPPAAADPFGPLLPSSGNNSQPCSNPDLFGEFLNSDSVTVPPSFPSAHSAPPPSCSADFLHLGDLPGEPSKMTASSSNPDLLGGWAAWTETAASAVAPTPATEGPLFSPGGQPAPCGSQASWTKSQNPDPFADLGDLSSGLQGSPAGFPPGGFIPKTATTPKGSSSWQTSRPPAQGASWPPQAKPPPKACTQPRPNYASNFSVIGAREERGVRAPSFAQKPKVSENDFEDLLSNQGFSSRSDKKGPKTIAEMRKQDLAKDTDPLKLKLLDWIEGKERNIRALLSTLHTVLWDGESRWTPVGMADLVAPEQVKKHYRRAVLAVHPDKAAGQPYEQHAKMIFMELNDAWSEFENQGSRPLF

IRAK3 (human) = IRAK3 (human) (UniProt Q9Y616)
[1] = target: JAK2 JH1 catalytic (human) (UniProt O60674)
LATS2 (human) = LATS2 (human) (UniProt Q9NRM7)
LCK (human) = LCK (human) (UniProt P06239)
MAP4K2 (human) = MAP4K2 (human) (UniProt Q12851)
MAP4K4 (human) = MAP4K4 (human) (UniProt O95819)
MAPK7 (human) = MAPK7 (human) (UniProt Q13164)
Chain of MAPK7 (human) (Q13164 whole entry, looked up): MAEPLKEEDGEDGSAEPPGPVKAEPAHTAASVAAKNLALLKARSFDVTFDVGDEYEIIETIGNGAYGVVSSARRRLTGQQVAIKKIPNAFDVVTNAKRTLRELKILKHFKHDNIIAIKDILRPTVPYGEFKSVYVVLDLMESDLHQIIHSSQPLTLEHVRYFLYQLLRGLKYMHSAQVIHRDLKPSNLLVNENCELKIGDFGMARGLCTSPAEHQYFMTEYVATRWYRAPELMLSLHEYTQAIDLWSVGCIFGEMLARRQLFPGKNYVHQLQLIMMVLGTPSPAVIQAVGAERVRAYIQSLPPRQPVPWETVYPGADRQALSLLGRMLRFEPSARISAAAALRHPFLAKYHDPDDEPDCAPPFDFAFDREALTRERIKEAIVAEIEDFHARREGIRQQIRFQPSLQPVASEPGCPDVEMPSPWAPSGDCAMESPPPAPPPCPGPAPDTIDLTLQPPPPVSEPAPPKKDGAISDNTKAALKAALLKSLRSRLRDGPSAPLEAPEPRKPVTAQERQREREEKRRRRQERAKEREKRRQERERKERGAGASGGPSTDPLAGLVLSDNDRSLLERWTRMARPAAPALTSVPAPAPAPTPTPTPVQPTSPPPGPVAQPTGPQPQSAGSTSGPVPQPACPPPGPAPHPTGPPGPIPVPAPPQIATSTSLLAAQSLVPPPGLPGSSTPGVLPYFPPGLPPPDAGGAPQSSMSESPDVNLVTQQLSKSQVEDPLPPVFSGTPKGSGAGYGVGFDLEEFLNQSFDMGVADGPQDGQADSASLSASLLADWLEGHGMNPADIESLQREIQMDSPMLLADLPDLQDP

MELK (human) = MELK (human) (UniProt Q14680)
MERTK (human) = MERTK (human) (UniProt Q12866)
MINK1 (human) = MINK1 (human) (UniProt Q8N4C8)
MYLK2 (human) = MYLK2 (human) (UniProt Q9H1R3)
MYLK3 (human) = MYLK3 (human) (UniProt Q32MK0)
MYLK4 (human) = MYLK4 (human) (UniProt Q86YV6)
NEK2 (human) = NEK2 (human) (UniProt P51955)
NEK5 (human) = NEK5 (human) (UniProt Q6P3R8)
NEK9 (human) = NEK9 (human) (UniProt Q8TD19)
NLK (human) = NLK (human) (UniProt Q9UBE8)
PIK3CG (human) = PIK3CG (human) (UniProt P48736)
PIP4K2B (human) = PIP4K2B (human) (UniProt P78356)
PIP5K1A (human) = PIP5K1A (human) (UniProt Q99755)
PLK1 (human) = PLK1 (human) (UniProt P53350)
Chain of PLK1 (human) (P53350 whole entry, looked up): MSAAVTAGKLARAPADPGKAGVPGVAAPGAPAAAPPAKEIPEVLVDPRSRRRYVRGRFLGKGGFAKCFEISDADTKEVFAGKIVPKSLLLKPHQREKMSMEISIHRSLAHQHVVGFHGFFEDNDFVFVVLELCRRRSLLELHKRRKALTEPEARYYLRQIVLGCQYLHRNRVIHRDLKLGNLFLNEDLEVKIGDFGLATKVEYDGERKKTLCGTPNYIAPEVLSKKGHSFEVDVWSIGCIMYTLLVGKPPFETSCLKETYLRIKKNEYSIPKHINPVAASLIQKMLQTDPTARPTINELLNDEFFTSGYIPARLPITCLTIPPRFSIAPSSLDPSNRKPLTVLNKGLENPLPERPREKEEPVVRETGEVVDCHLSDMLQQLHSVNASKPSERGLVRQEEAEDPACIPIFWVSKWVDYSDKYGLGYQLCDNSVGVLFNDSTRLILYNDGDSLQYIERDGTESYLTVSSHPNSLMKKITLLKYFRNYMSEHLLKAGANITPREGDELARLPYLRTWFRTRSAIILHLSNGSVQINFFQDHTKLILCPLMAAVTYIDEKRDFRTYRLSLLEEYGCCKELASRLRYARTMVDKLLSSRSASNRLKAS

PLK3 (human) = PLK3 (human) (UniProt Q9H4B4)
Chain of PLK3 (human) (Q9H4B4 whole entry, looked up): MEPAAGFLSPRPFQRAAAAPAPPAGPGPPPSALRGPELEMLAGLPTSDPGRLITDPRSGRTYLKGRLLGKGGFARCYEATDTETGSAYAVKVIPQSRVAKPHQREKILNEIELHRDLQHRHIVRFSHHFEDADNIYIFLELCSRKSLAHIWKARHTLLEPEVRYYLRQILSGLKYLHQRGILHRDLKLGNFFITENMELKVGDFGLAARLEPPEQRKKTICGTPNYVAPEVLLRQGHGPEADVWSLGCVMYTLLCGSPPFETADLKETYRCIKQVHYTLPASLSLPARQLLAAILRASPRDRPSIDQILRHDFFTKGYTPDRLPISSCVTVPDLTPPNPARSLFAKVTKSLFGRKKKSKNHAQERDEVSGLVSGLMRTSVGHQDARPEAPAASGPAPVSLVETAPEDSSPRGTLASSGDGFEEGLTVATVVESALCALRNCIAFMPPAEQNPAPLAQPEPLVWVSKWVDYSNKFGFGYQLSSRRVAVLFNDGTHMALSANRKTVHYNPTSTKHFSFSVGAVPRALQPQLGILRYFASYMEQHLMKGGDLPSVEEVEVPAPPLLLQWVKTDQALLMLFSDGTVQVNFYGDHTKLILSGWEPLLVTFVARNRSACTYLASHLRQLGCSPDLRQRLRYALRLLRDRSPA

PLK4 (human) = PLK4 (human) (UniProt O00444)
RIOK1 (human) = RIOK1 (human) (UniProt Q9BRS2)
RIOK2 (human) = RIOK2 (human) (UniProt Q9BVS4)
RIOK3 (human) = RIOK3 (human) (UniProt O14730)
RPS6KA1 KD1 (human) = RPS6KA1 KD1 (human) (UniProt Q15418)
SGK110 (human) = SGK110 (human) (UniProt P0C264)
SLK (human) = SLK (human) (UniProt Q9H2G2)
SRPK3 (human) = SRPK3 (human) (UniProt Q9UPE1)
STK16 (human) = STK16 (human) (UniProt O75716)
STK17A (human) = STK17A (human) (UniProt Q9UEE5)
TNIK (human) = TNIK (human) (UniProt Q9UKE5)
TNK1 (human) = TNK1 (human) (UniProt Q13470)
Chain of TNK1 (human) (Q13470 whole entry, looked up): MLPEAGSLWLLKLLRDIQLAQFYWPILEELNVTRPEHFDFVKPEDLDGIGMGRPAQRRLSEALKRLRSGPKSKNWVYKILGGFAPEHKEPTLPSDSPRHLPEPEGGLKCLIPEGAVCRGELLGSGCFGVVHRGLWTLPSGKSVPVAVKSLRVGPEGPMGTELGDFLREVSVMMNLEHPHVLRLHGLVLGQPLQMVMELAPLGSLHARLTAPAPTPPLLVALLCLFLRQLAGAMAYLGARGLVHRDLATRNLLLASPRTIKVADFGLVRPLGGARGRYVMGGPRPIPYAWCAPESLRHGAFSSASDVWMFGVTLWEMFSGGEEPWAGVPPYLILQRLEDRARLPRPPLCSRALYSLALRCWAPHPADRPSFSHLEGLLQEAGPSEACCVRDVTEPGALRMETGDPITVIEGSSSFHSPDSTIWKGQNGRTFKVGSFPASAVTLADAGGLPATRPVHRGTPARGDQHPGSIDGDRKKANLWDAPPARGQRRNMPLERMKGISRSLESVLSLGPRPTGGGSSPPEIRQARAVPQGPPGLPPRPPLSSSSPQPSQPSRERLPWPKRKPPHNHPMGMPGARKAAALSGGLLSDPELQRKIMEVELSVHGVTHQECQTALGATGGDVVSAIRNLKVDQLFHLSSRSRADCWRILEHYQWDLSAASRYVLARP

TTK (human) = TTK (human) (UniProt P33981)
TXK (human) = TXK (human) (UniProt P42681)
[2] = target: TYK2 JH1 catalytic (human) (UniProt P29597)
[3] = target: TYK2 JH2 pseudokinase (human) (UniProt P29597)
IGF1R (human) = IGF1R (human) (UniProt P08069)
LATS1 (human) = LATS1 (human) (UniProt O95835)
MAP2K3 (human) = MAP2K3 (human) (UniProt P46734)
MYO3B (human) = MYO3B (human) (UniProt Q8WXR4)
PAK1 (human) = PAK1 (human) (UniProt Q13153)
CAMKK2 (human) = CAMKK2 (human) (UniProt Q96RR4)
CDC42BPG (human) = CDC42BPG (human) (UniProt Q6DT37)
DCLK2 (human) = DCLK2 (human) (UniProt Q8N568)
LIMK2 (human) = LIMK2 (human) (UniProt P53671)
MYLK (human) = MYLK (human) (UniProt Q15746)
ROS1 (human) = ROS1 (human) (UniProt P08922)
STK33 (human) = STK33 (human) (UniProt Q9BYT3)

SMILES: CN1C(=O)[C@H]2CCC[C@H]2N(C2CCCC2)c2nc(Nc3ccc4ncccc4c3)ncc21
- kinase still bound, per cent of control (AAK1 (human)): 12%
- kinase still bound, per cent of control (ACVR1 (human)): 16%
- kinase still bound, per cent of control (ADCK4 (human)): 10%
- kinase still bound, per cent of control (AURKA (human)): 11%
- kinase still bound, per cent of control (AURKB (human)): 21%
- kinase still bound, per cent of control (AURKC (human)): 4.6%
- kinase still bound, per cent of control (BMP2K (human)): 2.1%
- kinase still bound, per cent of control (CDK7 (human)): 30%
- kinase still bound, per cent of control (CSNK1D (human)): 4.3%
- kinase still bound, per cent of control (CSNK1E (human)): 0.15%
- kinase still bound, per cent of control (CSNK1G3 (human)): 20%
- kinase still bound, per cent of control (DCLK1 (human)): 12%
- kinase still bound, per cent of control (FYN (human)): 34%
- kinase still bound, per cent of control (GAK (human)): 1.8%
- kinase still bound, per cent of control (IRAK3 (human)): 16%
- kinase still bound, per cent of control [1]: 15%
- kinase still bound, per cent of control (LATS2 (human)): 14%
- kinase still bound, per cent of control (LCK (human)): 19%
- kinase still bound, per cent of control (MAP4K2 (human)): 23%
- kinase still bound, per cent of control (MAP4K4 (human)): 0.8%
- kinase still bound, per cent of control (MAPK7 (human)): 0.25%
- kinase still bound, per cent of control (MELK (human)): 26%
- kinase still bound, per cent of control (MERTK (human)): 28%
- kinase still bound, per cent of control (MINK1 (human)): 1.6%
- kinase still bound, per cent of control (MYLK2 (human)): 8.3%
- kinase still bound, per cent of control (MYLK3 (human)): 7.6%
- kinase still bound, per cent of control (MYLK4 (human)): 33%
- kinase still bound, per cent of control (NEK2 (human)): 31%
- kinase still bound, per cent of control (NEK5 (human)): 11%
- kinase still bound, per cent of control (NEK9 (human)): 30%
- kinase still bound, per cent of control (NLK (human)): 12%
- kinase still bound, per cent of control (PIK3CG (human)): 34%
- kinase still bound, per cent of control (PIP4K2B (human)): 13%
- kinase still bound, per cent of control (PIP5K1A (human)): 19%
- kinase still bound, per cent of control (PLK1 (human)): 0.25%
- kinase still bound, per cent of control (PLK3 (human)): 10%
- kinase still bound, per cent of control (PLK4 (human)): 1.9%
- kinase still bound, per cent of control (RIOK1 (human)): 7.2%
- kinase still bound, per cent of control (RIOK2 (human)): 0.35%
- kinase still bound, per cent of control (RIOK3 (human)): 7.6%
- kinase still bound, per cent of control (RPS6KA1 KD1 (human)): 27%
- kinase still bound, per cent of control (SGK110 (human)): 30%
- kinase still bound, per cent of control (SLK (human)): 18%
- kinase still bound, per cent of control (SRPK3 (human)): 20%
- kinase still bound, per cent of control (STK16 (human)): 2.2%
- kinase still bound, per cent of control (STK17A (human)): 3.3%
- kinase still bound, per cent of control (TNIK (human)): 14%
- kinase still bound, per cent of control (TNK1 (human)): 1.6%
- kinase still bound, per cent of control (TTK (human)): 26%
- kinase still bound, per cent of control (TXK (human)): 34%
- kinase still bound, per cent of control [2]: 25%
- kinase still bound, per cent of control [3]: 31%

SMILES: O=C1NC(=O)C(=Cc2ccc(-c3ccc([N+](=O)[O-])cc3)o2)C(=O)N1
- kinase still bound, per cent of control (IGF1R (human)): 34%
- kinase still bound, per cent of control (LATS1 (human)): 0%
- kinase still bound, per cent of control (MAP2K3 (human)): 15%
- kinase still bound, per cent of control (MYO3B (human)): 28%
- kinase still bound, per cent of control (PAK1 (human)): 17%

SMILES: COc1cc(C(=O)NC2CCN(C)CC2)ccc1Nc1ncc2c(n1)N(C1CCCC1)[C@@H]1CCC[C@@H]1C(=O)N2C
- kinase still bound, per cent of control (CAMKK2 (human)): 22%
- kinase still bound, per cent of control (CDC42BPG (human)): 12%
- kinase still bound, per cent of control (DCLK1 (human)): 2.4%
- kinase still bound, per cent of control (DCLK2 (human)): 2.8%
- kinase still bound, per cent of control (GAK (human)): 13%
- kinase still bound, per cent of control (LIMK2 (human)): 8.3%
- kinase still bound, per cent of control (MAPK7 (human)): 0.6%
- kinase still bound, per cent of control (MYLK (human)): 2.6%
- kinase still bound, per cent of control (PLK1 (human)): 15%
- kinase still bound, per cent of control (PLK3 (human)): 0%
- kinase still bound, per cent of control (ROS1 (human)): 31%
- kinase still bound, per cent of control (SLK (human)): 5.8%
- kinase still bound, per cent of control (STK33 (human)): 11%
- kinase still bound, per cent of control (TNK1 (human)): 21%
- kinase still bound, per cent of control (TTK (human)): 28%
